Results reported in EPA's ToxValDB 9.5.
Where “and” joins values, the source holds several entries; their conditions need not be identical. Equal entries are not always repeated.

What was measured:
Rattus norvegicus [1] = test system: Rattus norvegicus
Mus musculus = settings: uterotrophic, Active
Rattus norvegicus [2] = settings: for LEL: uterotrophic, Active
Rattus norvegicus [3] = test system: Rattus norvegicus; remark: listed apart in the source
Oryctolagus sp. = settings: acute; oral
Rattus norvegicus [4] = settings: for NOAEL: Sprague-Dawley
Rattus norvegicus [5] = settings: subchronic; oral; gavage; M/F; Crj:CD; Deaths + Clinical Observation: Loose stool Locomotor activity decrease, Hypopnea Subnormal temperature decrease + Body Weight Changes: …
Rattus norvegicus [6] = settings: short-term; duration: 3 days; injection; subcutaneous; F; Crj:CD; uterus: uterine dry weight (absolute)
[7] = duration: 1 days, injection, intraperitoneal
[8] = duration: 1 days, injection, subcutaneous
[9] = duration: 3 days, injection, intraperitoneal
[10] = chronic, oral, M/F, renal damage
[11] = chronic, oral, gavage, F, increased kidney weight in female rats
[12] = subchronic, duration: 13 weeks, inhalation, M/F, increased kidney weight in female rats and adrenal weight in male and female rats
[13] = duration: 7 days, injection, subcutaneous

For C=C(C)c1ccccc1 [alpha-Methylstyrene], the NOEL (Rattus norvegicus [1]; chronic, duration: 197 days, inhalation, intermittent, Kidney: Increased weight + Liver: Increased weight) was 970 mg/m3.
In the case of CC/C(=C(/CC)c1ccc(O)cc1)c1ccc(O)cc1 [Diethylstilbestrol], the LEL (Mus musculus; [7]) is reported as 0.0005 mg/kg-day, the LEL (Mus musculus; [8]) is reported as 0.00045 mg/animal and the LEL (Mus musculus; duration: 1.2 days, injection, subcutaneous) is reported as 0.00045 mg/animal. It also gave an LEL (Mus musculus; [9]) of 0.1 mg/kg-day, an LEL (Mus musculus; duration: 3 days, oral) of 0.02 mg/kg-day and an LEL (Mus musculus; duration: 4 days, oral) of 0.0006 mg/day. For the same compound, the LEL (Mus musculus; duration: 5 days, oral, diet) was 0.004 ppm, the LEL (Mus musculus; duration: 6 days, oral, diet) was 3.6e-05 mg and 5e-05 mg/day and the LEL (Mus musculus; duration: 9 days, injection, subcutaneous) was 0.5 mg/kg-day. For the same compound, the LEL (Mus musculus; duration: 9 days, oral, diet) was 0.004 ppm, the LEL (Mus musculus; duration: 10 days, injection, subcutaneous) was 0.0001 mg/day and the LEL (Mus musculus; duration: 11 days, oral, diet) was 0.004 ppm. For the same compound, the LEL (Mus musculus; duration: 42 days, injection, subcutaneous) was 0.01 mg/kg-day, the LEL (Mus musculus; oral) was 0.002 mg/kg-day and the LEL (Rattus norvegicus [2]; duration: 0 days, injection, intraperitoneal) was 0.05 mg. It also gave an LEL (Rattus norvegicus [2]; duration: 1 days, dermal) of 0.5 mg/L, an LEL (Rattus norvegicus [2]; [7]) of 0.01 mg/kg-day and an LEL (Rattus norvegicus [2]; [9]) of 0.01 mg/kg-day. For the same compound, the LEL (Rattus norvegicus [2]; duration: 4 days, injection, subcutaneous) was 0.01 mg/day, the LEL (Rattus norvegicus [2]; duration: 4 days, oral, diet) was 0.005 ppm and 0.01 ppm and the LEL (Rattus norvegicus [2]; duration: 7 days, oral) was 0.0009 mg/kg-day. It also gave an LEL (Rattus norvegicus [2]; duration: 8 days, injection, intraperitoneal) of 0.01 mg/kg-day.
With CC(=O)[O][Hg][c]1ccccc1 [Phenylmercuric acetate] the LOAEL (Rattus norvegicus [3]; [10]) was 0.042 mg/kg-day, the NOAEL (Rattus norvegicus [3]; [10]) was 0.0084 mg/kg-day and the NOAEL (Rattus norvegicus [1]; chronic, duration: 2 years, oral, diet, Kidney: Damage) was 0.0084 mg/kg-day.
Work on S=C([S-])NCCNC(=S)[S-].S=C([S-])NCCNC(=S)[S-].[Mn+2].[Zn+2] [Mancozeb] yielded an NOEL (Rattus norvegicus [1]; chronic, duration: 90 weeks, oral, diet, Thyroid: Goitrogenic effects) of 2.9 mg/kg-day.
Work on COP(=S)(OC)Oc1cc(Cl)c(Br)cc1Cl [Bromofos] yielded an NOAEL (Rattus norvegicus [1]; reproduction developmental, oral, diet, Blood: Decreased cholinesterase activity + Liver: Decreased cholinesterase activity) of 5 mg/kg-day.
For S=C([S-])NCCNC(=S)[S-].[Zn+2] [Zineb], the LOAEL (Rattus norvegicus [3]; chronic, oral, M/F, thyroid hyperplasia) was 25 mg/kg-day and the LOAEL (Rattus norvegicus [1]; chronic, duration: 2 years, oral, diet, hyperplasia) was 25 mg/kg-day.
With CC(C)c1ccccc1 [Cumene] the LOAEL (Rattus norvegicus [3]; [11]) was 331 mg/kg-day, the NOAEL (Rattus norvegicus [3]; [11]) was 110 mg/kg-day and the LOAEL (Rattus norvegicus [3]; [12]) was 5910 mg/m3. It also gave an NOAEL (Rattus norvegicus [3]; [12]) of 2440 mg/m3, an NOAEL (Rattus norvegicus [1]; chronic, duration: 194 days, oral, gavage, Kidney: Increased weight) of 154 mg/kg-day and an NOAEL (Rattus norvegicus [1]; short-term, duration: 4 weeks, inhalation, intermittent, Central nervous system: Involvement + Nose: Irritation) of 517 mg/m3.
Compound O=C(OCc1ccccc1)c1ccc(O)cc1 [Benzyl 4-hydroxybenzoate] has an LEL (Mus musculus; duration: 3 days, dermal) of 100 mg/day and an LEL (Rattus norvegicus [2]; duration: 3 days, oral) of 0.16 mg/kg-day.
For COP(=S)(OC)Oc1nc(Cl)c(Cl)cc1Cl [Chlorpyrifos-methyl], the LOEL (Rattus norvegicus [2]; Hershberger, duration: 10 days, oral, gavage, Sprague-Dawley, active + Negative + Antiandrogenic + anti-androgenic) was 50 mg/kg-day and the NOAEL (Rattus norvegicus [1]; reproduction developmental, duration: 3 years, oral, diet, Liver: Effects + Reproduction: Decreased fertility) was 1 mg/kg-day.
In the case of CC(C)(c1ccc(O)cc1)c1ccc(O)cc1 [Bisphenol A], the LD50 (Oryctolagus sp.) is reported as 2230 mg/kg, the LC50 (Rattus norvegicus [4]; acute, inhalation, particle, Fischer 344) is reported as greater than 170 mg/L and the LD50 (Rattus norvegicus [4]; acute, oral, Fischer 344) is reported as 4100 mg/kg and 3300 mg/kg. It also gave an NOAEL (Rattus norvegicus [4]; developmental, duration: 10 days, oral, gavage) greater than 640 mg/kg-day, an NOAEL (Rattus norvegicus [4]; reproduction developmental, duration: 13 weeks, oral, diet, generation: F0) of 75 ppm and an NOAEL (Rattus norvegicus [4]; reproduction developmental, duration: 13 weeks, oral, diet, generation: F1) of 750 ppm. It also gave an LOAEL (Rattus norvegicus [4]; reproduction developmental, duration: 103 weeks, oral, diet, Fischer 344, generation: F0) of 1000 ppm, an NOEL (Rattus norvegicus [5]) of 40 mg/kg-day and an LOAEL (Rattus norvegicus [3]; chronic, oral, M/F, reduced mean body weight) of 50 mg/kg-day. It also gave an LEL (Mus musculus; duration: 0.17 days, injection, subcutaneous) of 0.00228 mg, an LEL (Mus musculus; [8]) of 10 mg/kg-day and an LEL (Mus musculus; [9]) of 20 mg/kg-day. The LEL (Mus musculus; duration: 3 days, osmotic minipump) was 100 mg/kg-day, the LEL (Mus musculus; [13]) was 100 mg/kg-day and the LEL (Rattus norvegicus [2]; [8]) was 400 mg/kg-day. The LEL (Rattus norvegicus [2]; duration: 2 days, injection, subcutaneous) was 200 mg/kg-day, the LEL (Rattus norvegicus [2]; duration: 4 days, injection, intraperitoneal) was 0.5 mg/kg-day and the LEL (Rattus norvegicus [2]; [13]) was 11 mg/kg-day. It also gave an LEL (Rattus norvegicus [2]; duration: 7 days, lactation) of 150 mg/kg-day, an NOAEL (Rattus norvegicus [1]; subchronic, duration: 13 weeks, oral, Whole body: Decreased weight) of 750 ppm and an LOEL (Rattus norvegicus [6]) of 20 mg/kg-day. For the same compound, the NOEL (Rattus norvegicus [6]) was 2 mg/kg-day.
